In ChEMBL document CHEMBL3885881, “DrugMatrix”:

Species: Rattus norvegicus
Test: DrugMatrix - Regimen: Daily Repeat
Assay type: toxicity, organism-based, Sprague-Dawley
Set-up: regimen Daily Repeat, gender Male, age 6-8 weeks
Conditions: in vivo, po, route oral GAVAGE, vehicle 100 % WATER; for ABSOLUTE BASOPHIL / ABSOLUTE EOSINOPHIL / ABSOLUTE LYMPHOCYTE / ABSOLUTE MONOCYTE / ABSOLUTE SEGMENTED NEUTROPHIL / BASOPHIL / EOSINOPHIL / ERYTHROCYTE COUNT / HEMATOCRIT / HEMOGLOBIN / LEUKOCYTE COUNT / LYMPHOCYTE / MEAN CORPUSCULAR HEMOGLOBIN / MEAN CORPUSCULAR HEMOGLOBIN CONCENTRATION / MONOCYTE / NEUTROPHIL / NUCLEATED RED BLOOD CELLS / PLATELET COUNT: tissue Blood; for ALANINE AMINOTRANSFERASE / ALBUMIN / ALKALINE PHOSPHATASE / ASPARTATE AMINOTRANSFERASE / BLOOD UREA NITROGEN / CARBON DIOXIDE / CHLORIDE / CHOLESTEROL / CREATINE PHOSPHOKINASE / CREATININE / GLUCOSE / LACTATE DEHYDROGENASE / LIPASE / PHOSPHORUS / POTASSIUM / SODIUM / TOTAL BILIRUBIN / TOTAL PROTEIN / URIC ACID: tissue Plasma
[1] = 0 mg/kg, 72 h, dose level Control, time 3 day
[2] = 0 mg/kg, 120 h, dose level Control, time 5 day
[3] = 35 mg/kg, 72 h, dose level Low, time 3 day

SMILES: Nc1ccn([C@@H]2CS[C@H](CO)O2)c(=O)n1 [LAMIVUDINE]
- ABSOLUTE BASOPHIL [1]: 0 CELLS/uL
- ABSOLUTE EOSINOPHIL [1]: 0 CELLS/uL
- ABSOLUTE LYMPHOCYTE [1]: 8482.5 CELLS/uL
- ABSOLUTE MONOCYTE [1]: 63.83 CELLS/uL
- ABSOLUTE SEGMENTED NEUTROPHIL [1]: 887 CELLS/uL
- BASOPHIL [1]: 0%
- EOSINOPHIL [1]: 0%
- ERYTHROCYTE COUNT [1]: 5.49 x10E6/uL
- HEMATOCRIT [1]: 34.5%
- HEMOGLOBIN [1]: 13.33 G/DL
- LEUKOCYTE COUNT [1]: 9.43 x10E3/uL
- LYMPHOCYTE [1]: 90.17%
- MEAN CORPUSCULAR HEMOGLOBIN [1]: 24.3 pg
- MEAN CORPUSCULAR HEMOGLOBIN CONCENTRATION [1]: 38.63 G/DL
- MONOCYTE [1]: 0.67%
- NEUTROPHIL [1]: 9.17%
- NUCLEATED RED BLOOD CELLS [1]: 0.67 /100WBC
- PLATELET COUNT [1]: 1022.83 x10E3/uL
- ALANINE AMINOTRANSFERASE [1]: 50.5 u/L
- ALBUMIN [1]: 4.08 G/DL
- ALKALINE PHOSPHATASE [1]: 368.33 u/L
- ASPARTATE AMINOTRANSFERASE [1]: 87.5 u/L
- BLOOD UREA NITROGEN [1]: 12.83 mg/dL
- CARBON DIOXIDE [1]: 32.83 mmol/L
- CHLORIDE [1]: 99.67 MEQ/L
- CHOLESTEROL [1]: 79.67 mg/dL
- CREATINE PHOSPHOKINASE [1]: 585 u/L
- CREATININE [1]: 0.22 mg/dL
- GLUCOSE [1]: 135.67 mg/dL
- LACTATE DEHYDROGENASE [1]: 171 u/L
- LIPASE [1]: 9.5 u/L
- PHOSPHORUS [1]: 11.18 mg/dL
- POTASSIUM [1]: 6.25 MEQ/L
- SODIUM [1]: 144.87 MEQ/L
- TOTAL BILIRUBIN [1]: 0.2 mg/dL
- TOTAL PROTEIN [1]: 6.08 G/DL
- URIC ACID [1]: 0.65 mg/dL
- ABSOLUTE BASOPHIL [2]: 0 CELLS/uL
- ABSOLUTE EOSINOPHIL [2]: 14.5 CELLS/uL
- ABSOLUTE LYMPHOCYTE [2]: 7596.17 CELLS/uL
- ABSOLUTE MONOCYTE [2]: 69.67 CELLS/uL
- ABSOLUTE SEGMENTED NEUTROPHIL [2]: 503 CELLS/uL
- BASOPHIL [2]: 0%
- EOSINOPHIL [2]: 0.17%
- ERYTHROCYTE COUNT [2]: 5.49 x10E6/uL
- HEMATOCRIT [2]: 34.72%
- HEMOGLOBIN [2]: 13.47 G/DL
- LEUKOCYTE COUNT [2]: 8.18 x10E3/uL
- LYMPHOCYTE [2]: 92.17%
- MEAN CORPUSCULAR HEMOGLOBIN [2]: 24.57 pg
- MEAN CORPUSCULAR HEMOGLOBIN CONCENTRATION [2]: 38.82 G/DL
- MONOCYTE [2]: 1%
- NEUTROPHIL [2]: 6.67%
- NUCLEATED RED BLOOD CELLS [2]: 0 /100WBC
- PLATELET COUNT [2]: 1141 x10E3/uL
- ALANINE AMINOTRANSFERASE [2]: 48.33 u/L
- ALBUMIN [2]: 4.07 G/DL
- ALKALINE PHOSPHATASE [2]: 395.67 u/L
- ASPARTATE AMINOTRANSFERASE [2]: 85.67 u/L
- BLOOD UREA NITROGEN [2]: 15.83 mg/dL
- CARBON DIOXIDE [2]: 31.33 mmol/L
- CHLORIDE [2]: 100.83 MEQ/L
- CREATINE PHOSPHOKINASE [2]: 248.33 u/L
- CREATININE [2]: 0.2 mg/dL
- GLUCOSE [2]: 135.67 mg/dL
- LACTATE DEHYDROGENASE [2]: 141.33 u/L
- LIPASE [2]: 9.5 u/L
- PHOSPHORUS [2]: 10.73 mg/dL
- POTASSIUM [2]: 6.07 MEQ/L
- SODIUM [2]: 145.35 MEQ/L
- TOTAL BILIRUBIN [2]: 0.22 mg/dL
- TOTAL PROTEIN [2]: 6.12 G/DL
- URIC ACID [2]: 0.63 mg/dL
- ABSOLUTE BASOPHIL [3]: 0 CELLS/uL
- ABSOLUTE EOSINOPHIL [3]: 40.67 CELLS/uL
- ABSOLUTE LYMPHOCYTE [3]: 11136 CELLS/uL
- ABSOLUTE MONOCYTE [3]: 119.67 CELLS/uL
- ABSOLUTE SEGMENTED NEUTROPHIL [3]: 470.33 CELLS/uL
- BASOPHIL [3]: 0%
- EOSINOPHIL [3]: 0.33%
- ERYTHROCYTE COUNT [3]: 5.47 x10E6/uL
- HEMATOCRIT [3]: 34.33%
- HEMOGLOBIN [3]: 13.4 G/DL
- LEUKOCYTE COUNT [3]: 11.77 x10E3/uL
- LYMPHOCYTE [3]: 94.67%
- MEAN CORPUSCULAR HEMOGLOBIN [3]: 24.5 pg
- MEAN CORPUSCULAR HEMOGLOBIN CONCENTRATION [3]: 39.03 G/DL
- MONOCYTE [3]: 1%
- NEUTROPHIL [3]: 4%
- NUCLEATED RED BLOOD CELLS [3]: 0 /100WBC
- PLATELET COUNT [3]: 1274 x10E3/uL
- ALANINE AMINOTRANSFERASE [3]: 51.67 u/L
- ALBUMIN [3]: 4.27 G/DL
- ALKALINE PHOSPHATASE [3]: 390.33 u/L
- ASPARTATE AMINOTRANSFERASE [3]: 80.67 u/L
- BLOOD UREA NITROGEN [3]: 12.33 mg/dL
- CARBON DIOXIDE [3]: 34.33 mmol/L
- CHLORIDE [3]: 98.33 MEQ/L
- CHOLESTEROL [3]: 78 mg/dL
- CREATINE PHOSPHOKINASE [3]: 237.33 u/L
- CREATININE [3]: 0.2 mg/dL
- GLUCOSE [3]: 124.67 mg/dL
- LACTATE DEHYDROGENASE [3]: 167.33 u/L
- LIPASE [3]: 10 u/L
- PHOSPHORUS [3]: 10.9 mg/dL
- POTASSIUM [3]: 6.42 MEQ/L
- SODIUM [3]: 144.2 MEQ/L
- TOTAL BILIRUBIN [3]: 0.13 mg/dL
- URIC ACID [3]: 0.87 mg/dL
